Tests used:
[1] = tested on: rhabdomyosarcoma tumor (hypoxia); assay: In vivo PET (TEP) imaging of hypoxia in the animal rhabdomyosarcoma model; settings: for SUVMax (average) / SUVMean (average): tumor to muscle
Description: The evaluations of the radio-tracers were carried out in the animal rhabdomyosarcoma model provided by Biomedical Magnetic Resonance Research Group (REMA)—Catholic University of Louvain (UCL)—Belgium according to Peeters et al. (Int J Radiat Oncol, 2015) in the comparative study of [^18F]HX-4, [^18F]FMISO and [^18F]FAZA. The in vivo imaging was carried out using an Inveon μTEP/μTDM camera (Siemens). The animals were handled under gaseous anesthesia using isoflurane (induction at 5%, maintenance between 1.5% and 2.5% in 70% N2O/30% O2). The body temperature of the animals was maintained above 37.5° C. while the rate of respiration was constantly monitored, in order to obtain stable anesthesia reproducible from one animal to another. A catheter was placed without surgery (Insight Autoguard 24 Ga) at the caudal vein in order to allow the administration of radio-tracers. TDM acquisition is systematically performed prior to TEP imaging and is used for corrections of attenuation and diffusion of photos as well as for obtaining anatomical data. Acquisitions and reconstructions were performed with a coincidence time of 3.4 ns, an energy window of 350 to 650 keV, the OSEM3D-MAP reconstruction algorithm (respectively 2 and 18 iterations) with the “fastMAP” option, uniform variance and a required resolution of 2.26 mm. 128×128×159 pixels per image, with a voxel size of 0.776×0.776×0.796 mm^3. The images were normalized in SUV (Standardized Uptake Value) and analyzed with the PMOD (3.6 PMODTechnologies) software, by manual delimitation of the volumes of interest (VOIs) “entire tumor” and “muscle” and simultaneously using the 2 imaging modes.
The animals were imaged for 180 consecutive minutes starting with the injection of the radiotracer [^18F]AEL-3156 (23±3 MBq) or [^18F]FMISO (18±3 MBq) coinciding with the beginning of TEP acquisition. The 180 min post-injection time is known to be optimal for this animal model, for obtaining imaging of hypoxia with TEP tracers such as [^18F]FMISO and [^18F]HX4. After TEP imaging and before waking, the animals systematically received an intraperitoneal injection of saline solution (2 mL) in order to rehydrate them.

[2] = Determination of the partition coefficient (n-octanol/H2O, radioactivity counting); type: physicochemical; settings: ambient temperature, average of three measurements, read-out: Log P value
Description: Determination of the partition coefficient:
n-Octanol (1 mL) and H2O (1 mL) were mixed for 20 min at ambient temperature before adding 10 μL of radioactively labeled compound. The tube was vigorously agitated by a vortex mixer for 30 min at ambient temperature. Three aliquots of 100 μL were collected from each phase and counted in a Packard Cobra Gamma counter. Log P was calculated as follows: log P=log (concentration of radioactivity in the n-octanol phase/concentration of radioactivity in the aqueous phase). The values provided are an average of the three measurements carried out.

SMILES	SUVMax (average) ([1]; 20-30 min of acquisition)	SUVMean (average) ([1]; 20-30 min of acquisition)	SUVMax (average) ([1]; 40-60 min of acquisition)	SUVMean (average) ([1]; 40-60 min of acquisition)	SUVMax (average) ([1]; 160-180 min of acquisition)	SUVMean (average) ([1]; 160-180 min of acquisition)	tumor to muscle ratio in SUVmax ([1]; at 20-30 min of acquisition)	tumor to muscle ratio in SUVmean ([1]; at 20-30 min of acquisition)	tumor to muscle ratio, times lower than [^18F]AEL-3156 ([1]; at 20-30 min of acquisition) [times]	time after which the optimal tumor to muscle ratio is achieved ([1]; of acquisition) [min]	time for which the optimal tumor to muscle ratio remains constant ([1]; post-injection)	logP at 30 min [2]
O=[N+]([O-])c1nccn1CC(O)C[18F] (centres unmarked) [[^18F]FMISO]	2.04	1.00	3.64	1.45	5.42	3.42	1.7	1	3	180		
O=[N+]([O-])c1nccn1Cn1cc(CC(CCC[18F])S(=O)(=O)O)nn1 (centres unmarked) [[^18F]AEL-3156]	5.20	2.94	5.10	2.93	2.90	1.51	5	3			at least 60 min	-2.9
